Legend:
[1] = Sensory evaluation of off-taste suppressing effect in 0.8 wt % potassium chloride aqueous solution (Experimental Examples 1 and 2)
[2] = Sensory evaluation in ramen noodle soup solution with potassium chloride (Experimental Example 3)
In short: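 Ramen soup base was prepared from instant soup powder (1.1 g), potassium chloride (0.8 g) and hot water (98.1 g), giving a potassium chloride off-taste. Compounds were added at set concentrations. Two expert panelists rated the intensity of bitter, metallic, harsh and astringent off-tastes.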

[3] = Sensory evaluation in BCAA sweetness aqueous solution (Experimental Example 6); set-up: key to off-taste suppressing effect: ±: no change from negative control; −: slightly suppressed compared to negative control; −−: suppressed compared to negative control (same level of intensity as BCAA sweetness aqueous solution in which total concentration of leucine, isoleucine, and valine (weight ratio=2:1:1) exceeds 0.8 wt % and is not more than 0.9 wt %); −−−: considerably suppressed compared to negative control (same level of intensity as BCAA sweetness aqueous solution in which total concentration of leucine, isoleucine, and valine (weight ratio=2:1:1) is not more than 0.8 wt %)
Experimental: Each compound shown in the following Table 20 was added to an aqueous solution prepared by dissolving leucine (0.50 parts by weight), isoleucine (0.25 parts by weight), valine (0.25 parts by weight), and granulated sugar (4 parts by weight) in ion exchange water (95 parts by weight) (hereinafter at times referred to as BCAA sweetness aqueous solution) so as to achieve the concentration (addition concentration) shown in the following Table 20 to prepare each evaluation sample.
(§1) Based on the following evaluation criteria, a panel of four experts determined by consensus the intensity of off-tastes (bitter taste, harsh taste) derived from amino acid in each evaluation sample, by comparison with a BCAA sweetness aqueous solution without addition of any compound (negative control).

[4] = Sensory evaluation in 0.06 wt % acesulfame potassium aqueous solution (Experimental Example 10); conditions: summary of Table 24
Experimental: Each compound shown in the following Table 24 was added to a 0.06 wt % acesulfame potassium aqueous solution (an aqueous solution prepared by dissolving acesulfame potassium (0.06 parts by weight) in water (99.94 parts by weight)) so as to achieve the concentration (addition concentration) shown in the following Table 24 to prepare each evaluation sample.
as §1, with “(bitter” for “(bitter taste, harsh”, “acesulfame potassium” for “amino acid”, “0.06 wt % acesulfame potassium” for “BCAA sweetness”

[5] = Sensory evaluation in 0.12 wt % aspartame aqueous solution (Experimental Example 12); conditions: Table 26
Experimental: Each compound shown in the following Table 26 was added to a 0.12 wt % aspartame aqueous solution (an aqueous solution prepared by dissolving aspartame (0.12 parts by weight) in ion exchange water (99.88 parts by weight)) so as to achieve the concentration (addition concentration) shown in the following Table 26 to prepare each evaluation sample.
as §1, with “three” for “four”, “harsh taste, metallic” for “harsh”, “aspartame” for “amino acid”, “0.12 wt % aspartame” for “BCAA sweetness”

[6] = Sensory evaluation in soy protein aqueous solution (Experimental Example 13); conditions: Table 27
Experimental: Each compound shown in the following Table 27 was added to an aqueous solution prepared by dissolving powdered soy protein (4 parts by weight) in water (96 parts by weight) (hereinafter at times referred to as soy protein aqueous solution) so as to achieve the concentration (addition concentration) shown in the following Table 27 to prepare each evaluation sample. Here, the powdered soy protein manufactured by FUJI OIL CO., LTD. was used.
as §1, with “harsh taste, astringent” for “harsh”, “soy protein” for “amino acid”, “soy protein” for “BCAA sweetness”

[7] = Sensory evaluation in granular fava bean protein (Experimental Example 16); conditions: Table 30
Experimental: Each compound shown in the following Table 30 was added to granular fava bean protein (manufactured by Schouten) so as to achieve the concentration (addition concentration) shown in the following Table 30 to prepare each evaluation sample.
as §1, with “harsh taste, astringent” for “harsh”, “fava bean protein” for “amino acid”, “granular fava bean protein” for “a BCAA sweetness aqueous solution”

SMILES: CCC(=O)O [propionic acid]
- off-taste suppressing effect ([1]; 0.8 wt % potassium chloride aqueous solution, addition concentration 100 weight ppb (12.5 weight ppm with respect to potassium chloride)): + (intensity of the same level as potassium chloride aqueous solution with potassium chloride concentration of not less than 0.75 wt % and less than 0.8 wt %)
- off-taste suppressing effect ([1]; 0.8 wt % potassium chloride aqueous solution, addition concentration 500 weight ppb (62.5 weight ppm with respect to potassium chloride)): ++ (intensity of the same level as potassium chloride aqueous solution with potassium chloride concentration of not less than 0.7 wt % and less than 0.75 wt %)
- off-taste suppressing effect ([1]; 0.8 wt % potassium chloride aqueous solution, addition concentration 1000 weight ppb (125 weight ppm with respect to potassium chloride)): ++ (intensity of the same level as potassium chloride aqueous solution with potassium chloride concentration of not less than 0.7 wt % and less than 0.75 wt %)
- off-taste suppressing effect ([1]; 0.8 wt % potassium chloride aqueous solution, addition concentration 2000 weight ppb (250 weight ppm with respect to potassium chloride)): ++ (intensity of the same level as potassium chloride aqueous solution with potassium chloride concentration of not less than 0.7 wt % and less than 0.75 wt %)
- off-taste suppressing effect ([1]; in words, potassium chloride aqueous solutions, Tables 1 to 14): high
- intensity of off-tastes (bitter taste, metallic taste, harsh taste, astringent taste) derived from potassium chloride ([1]; potassium chloride aqueous solutions, Tables 1 to 14): decreased
- off-taste suppressing effect ([2]; Ramen noodle soup solution with 0.8 wt % potassium chloride, addition concentration 1 ppm (125 weight ppm with respect to potassium chloride)): ++ (intensity of the same level as potassium chloride aqueous solution with potassium chloride concentration of not less than 0.7 wt % and less than 0.75 wt %)
- intensity of off-tastes (bitter taste, metallic taste, harsh taste, astringent taste) derived from potassium chloride ([2]; base solutions of Tables 15 to 17 (ramen noodle soup, chicken broth, potage)): decreased
- off-taste suppressing effect ([3]; addition concentration 100 weight ppb (10 weight ppm with respect to amino acid)): −
- off-taste suppressing effect ([3]; addition concentration 500 weight ppb (50 weight ppm with respect to amino acid)): −− (suppressed compared to negative control (same level of intensity as BCAA sweetness aqueous solution in which total concentration of leucine, isoleucine, and valine (weight ratio=2:1:1) exceeds 0.8 wt % and is not more than 0.9 wt %))
- off-taste suppressing effect ([3]; addition concentration 1000 weight ppb (100 weight ppm with respect to amino acid)): −− (suppressed compared to negative control (same level of intensity as BCAA sweetness aqueous solution in which total concentration of leucine, isoleucine, and valine (weight ratio=2:1:1) exceeds 0.8 wt % and is not more than 0.9 wt %))
- off-taste suppressing effect ([3]; addition concentration 2000 weight ppb (200 weight ppm with respect to amino acid)): −− (suppressed compared to negative control (same level of intensity as BCAA sweetness aqueous solution in which total concentration of leucine, isoleucine, and valine (weight ratio=2:1:1) exceeds 0.8 wt % and is not more than 0.9 wt %))
- intensity of off-tastes (bitter taste, harsh taste) derived from amino acid (branched chain amino acid) ([3]; summary of Table 20): suppressed
- intensity of off-tastes (bitter taste) derived from acesulfame potassium [4]: suppressed
- intensity of off-tastes (bitter taste, harsh taste, metallic taste) derived from aspartame [5]: suppressed
- intensity of off-tastes (bitter taste, harsh taste, astringent taste) derived from soy protein [6]: suppressed
- intensity of off-tastes (bitter taste, harsh taste, astringent taste) derived from fava bean protein [7]: suppressed
